{
  "source": "patent US12268671B2",
  "about": "“IL-8 inhibitors for use in the treatment of chemotherapy-induced peripheral neuropathy” (DOMPÉ FARMACEUTICI S.P.A., priority 2016, dated 2025)",
  "key": {"[1]": {"tested_on": "Male Wistar rats", "experiment": "Paclitaxel-induced cold allodynia (acetone test)", "type": "in vivo, rat", "conditions": "paclitaxel model", "description": "(§1) Male Wistar rats (200-250 g, Harlan Italy) were housed in a room with controlled temperature (22±1° C.), humidity (60±10%) and light (12 h per day); food and water were available ad libitum.\n(§2) The rats received: • 1—four once a day intraperitoneal (i.p.) injections of either paclitaxel (Tocris, Italy) (2 mg/kg/day i.p.; cumulative dose of 8 mg/kg i.p.) or vehicle (saline, 1 ml/kg/day i.p.), administered on alternate days (days 0, 2, 4, and 6), as described in Polomano et al, Pain 2001, 94:293-294. Behavioral testing was performed prior to paclitaxel/vehicle administration (day-1), and again on days 5-7-10-14 following paclitaxel/vehicle injection; • or • 2—oxaliplatin (2.4 mg/kg) dissolved in 5% glucose solution which was administered intraperitoneally (i.p.) at a volume of 0.5 mL/rat, for 5 consecutive days every week for 3 weeks, as described in Cavaletti et al., Eur. J. Cancer, 2001 37, 2457-63. Behavioral testing was performed before oxaliplatin/vehicle administration (day-1), and at again on day 3-5-7-10-14-21 day following oxaliplatin/vehicle injection.\n(§3) DF2726A (30 mg/kg) (5 mg/1 ml, 0.5 ml/os/rat) was dissolved in 10% SOLUTOL-HS15 and N-methylpyrrolidone (NMP) (SOLUTOL:NMP 2:1 w/v) and 90% PBS 1×, and was administered once a day from day −3 up to day 11 after paclitaxel administration. Anti-allodynic effects were assessed on day 5, 7, 10 and 14 after paclitaxel administration. Control animals received vehicle (10% SOLUTOL-NMP 2:1 w/v and PBS, 5 mg/1 ml; 0.5 m1/os/rat).\n(§4) DF1681B was administered by continuous subcutaneous infusion using the ALZET osmotic pumps Model 2ML2 (Charles River). In details, DF1681B (9.37 g) was dissolved in sterile saline (25 ml) at a concentration of 375 mg/ml and vortexed for 10 min. Osmotic pumps were implanted under anesthesia (100 mg/kg ketamine and 10 mg/kg xylazine i.p.) through a surgical incision between the scapulae. Pumps were implanted 3 days before first paclitaxel injection (day-3). Drug delivery was carried out continuously until day +11. Control animals received vehicle (sterile saline).\nCold sensitivity was measured as the number of foot withdrawal responses after application of acetone to the dorsal surface of the paw (2). A drop of acetone was applied to the dorsal surface of paws with a syringe connected to a thin polyethylene tube while the rats was standing on a metal mesh. […] Cold responses were measured on both paws before (day −1) and, then on 5, 7, 10 and 14 days after paclitaxel/vehicle administration or on days 0, 5, 7, 10, 14 and 21 after oxalipaltin/vehicle administration.\n(§5) All data were presented as the mean±SEM. The significance of differences between groups was determined by two-way analyses of variance (ANOVA) followed by Bonferroni post hoc tests for multiple comparisons. […]"}, "[2]": {"tested_on": "Male Wistar rats", "experiment": "Paclitaxel-induced mechanical allodynia (Dynamic Plantar Aesthesiometer)", "type": "in vivo, rat", "conditions": "paclitaxel model", "description": "as §1, §2, §3, §4\nTo assess the development of mechanical allodynia, sensitivity to tactile stimulation was measured using the Dynamic Plantar Aesthesiometer (DPA, Ugo Basile, Italy). Animals were placed in a chamber with a mesh metal floor covered by a plastic dome that enabled the animal to walk freely, but not to jump. The mechanical stimulus were then delivered in the mid-plantar skin of the hind paw. The cut-off was fixed at 50 g. […]\nas §5"}, "[3]": {"tested_on": "Male Wistar rats", "experiment": "Oxaliplatin-induced cold allodynia (acetone test)", "type": "in vivo, rat", "conditions": "oxaliplatin model", "description": "as §1, §2\nDF2726A (30 mg/kg/os) was dissolved in PBS and it was administrated, for 24 consecutive days starting 3 days before oxaliplatin administration and continuing for other 21 days after the first administration of oxaliplatin. During this period the compound was given 2 h after oxaliplatin treatment. Since DF2726A is a sodium salt it was dissolved at the concentration of 16 mg/ml, to reach the active drug dose of 30 mg/kg.\nDF1681B was administered by continuous subcutaneous infusion using the ALZET osmotic pumps Model 2ML2 (Charles River). In order to obtain a rate of infusion of 8 mg/hr/kg as described by Cavalieri et al Int J Immunopathol Pharmacol, 2005, 18:475-86, DF1681B (9.37 g) was dissolved in sterile saline (25 ml) at a concentration of 375 mg/ml and vortexed for 10 min. Osmotic pumps were implanted under anesthesia (100 mg/kg ketamine and 10 mg/kg xylazine i.p.). Pumps were prepared according to Alzet instructions sheet. Briefly, pumps were filled with 2 ml of DF1681B solution or vehicle using sterile syringe. Finally, pumps were kept in water bath overnight in stove at 37° C. […]\nCold sensitivity was measured as the number of foot withdrawal responses after application of acetone to the dorsal surface of the paw (2). […] Cold responses were measured on both paws before (day −1) and, then on 5, 7, 10 and 14 days after paclitaxel/vehicle administration or on days 0, 5, 7, 10, 14 and 21 after oxalipaltin/vehicle administration.\nas §5"}, "[4]": {"tested_on": "Male Wistar rats", "experiment": "Oxaliplatin-induced mechanical allodynia (Dynamic Plantar Aesthesiometer)", "type": "in vivo, rat", "conditions": "oxaliplatin model, days 14 and 21", "description": "as §1\nas §2, with “Behavioral testing was performed before oxaliplatin/vehicle administration (day-1), and at again on day 3-5-7-10-14-21 day following oxaliplatin/vehicle injection.” left out\nTo assess the development of mechanical allodynia, sensitivity to tactile stimulation was measured using the Dynamic Plantar Aesthesiometer (DPA, Ugo Basile, Italy). […]\nas §5"}, "[5]": {"tested_on": "F-11 cell line", "experiment": "Paclitaxel-induced cytoskeleton modifications, immunofluorescence in differentiated F11 neurons", "type": "cell-based, mouse/rat", "conditions": "24 hours", "description": "In this study, the effects of paclitaxel, administered alone or in combination with reparixin (DF1681Y; R-(−)-2-(4-isobutylphenyl)propionyl methanesulfonamide) dissolved in aqueous solution of lysine to form the in situ salt, on the cytoskeleton components and organization was performed. As experimental model, a F-11 cell line, a fusion product of mouse neuroblastoma cell line N18TG-2 cells with embryonic rat dorsal root ganglia sensory neurons, was used. These cells were selected because of the presence of neuronal markers and properties that are unique to the parental rat sensory neurons.\nF11 (ECACC, Salisbury, UK) cells were cultivated DMEM (Euroclone, MI, Italy) medium supplemented with 10% FBS, USA origin, (Sigma-Aldrich St. Louis, CO, USA), 1% penicillin/streptomycin (Euroclone) and 1% glutamine (Euroclone). After, cells were differentiated with mouse NGF (mNGF) dissolved in DMEM with 1% penicillin/streptomycin and 1% glutamine (FBS free) at the final concentration 50 ng/ml. Medium was replaced every 3 days until complete differentiation, occurred after 7 days. Neurons were not treated (controls) or treated for 24 hours with reparixin [10 μM final concentration], paclitaxel (Sigma-Aldrich) [10 nM final concentration] and the combination of the two molecules.\nCells were fixed in paraformaldehyde 4% in PBS for 20 min at RT and permeabilized in methanol for 5 min at −20° C. Cells were then blocked with PBS containing 4% BSA for 30 min and incubated with primary antibodies diluted in the blocking solution overnight at 4° C.: rabbit β-tubulin (Abcam, Cambridge, UK) 1:500; mouse α-tubulin (Abcam) 1:200 and mouse α-tubulin acetylated (Abcam) 1:1000. Cells were then rinsed in PBS several times before incubation with secondary antibodies, goat anti rabbit conjugated with Alexafluor 633 (1:2000), and goat anti mouse conjugated with Alexafluor 488 (1:2000), (Life Technologies, CA, USA) for 30 min at RT. After extensive washing coverslips were mounted with Vectashield mounting medium with DAPI (Vector Laboratories Burlingame, CA, USA) and then observed at confocal laser microscope."}, "[6]": {"conditions": "DF1681B continuous subcutaneous infusion from day -3 to day +11, day 14"}, "[7]": {"conditions": "DF2726A 30 mg/kg os once a day from day -3 to day 11, day 14 (after end of treatment)"}, "[8]": {"conditions": "DF2726A 30 mg/kg os once a day from day -3 to day 11, days 5 (P<0.05), 7 (P<0.001), 10 (P<0.001)"}, "[9]": {"conditions": "reparixin 10 μM in combination with paclitaxel 10 nM"}},
  "data": [
    {"smiles": "CC(C)Cc1ccc([C@@H](C)C(=O)NS(C)(=O)=O)cc1", "note": "[DF1681B, R(−)-2-(4-isobutylphenyl)propionyl methansulfonamide]", "values": [
      {"measurement": "cold allodynia (number of paw withdrawals) vs animals treated with vehicle", "setting": "[1]; [6]", "result": "No additional antiallodynic effect"},
      {"measurement": "cold allodynia (number of paw withdrawals) vs animals treated with vehicle", "setting": "[1]; DF1681B continuous subcutaneous infusion from day -3 to day +11, days 5 (P<0.01), 7 (P<0.001), 10 (P<0.001)", "result": "significant reduction of cold allodynia"},
      {"measurement": "mechanical allodynia (paw withdrawal threshold) vs animals treated with vehicle", "setting": "[2]; DF1681B continuous subcutaneous infusion by osmotic pump from day -3 to day +11, days 5 (P<0.01), 7 (P<0.001), 10 (P<0.001)", "result": "significant reduction of mechanical allodynia"},
      {"measurement": "mechanical allodynia (paw withdrawal threshold) vs animals treated with vehicle", "setting": "[2]; [6]", "result": "No additional antiallodynic effect"},
      {"measurement": "cold allodynia (number of paw withdrawals)", "setting": "[3]; DF1681B continuous subcutaneous infusion 8 mg/hr/kg from day -3, day 3", "result": "did not show antiallodynic effect"},
      {"measurement": "cold allodynia (number of paw withdrawals)", "setting": "[3]; DF1681B continuous subcutaneous infusion 8 mg/hr/kg from day -3, days 5, 7, 10, 14, 21", "result": "significant reduction of cold allodynia"},
      {"measurement": "mechanical allodynia (paw withdrawal threshold)", "setting": "[4]; DF1681B continuous subcutaneous infusion 8 mg/hr/kg from day -3", "result": "significant antiallodynic effect"}
    ]},
    {"smiles": "CC(C)(C(=O)[O-])c1ccc(Nc2nc(C(F)(F)F)cs2)cc1.[Na+]", "note": "[DF2726A, 2-methyl-2-(4-{[4-(trifluoromethyl)-1,3-thiazol-2-yl]amino}phenyl)propanoic acid sodium salt]", "values": [
      {"measurement": "cold allodynia (number of paw withdrawals) vs animals treated with vehicle", "setting": "[1]; [7]", "result": "No additional antiallodynic effect"},
      {"measurement": "cold allodynia (number of paw withdrawals) vs animals treated with vehicle", "setting": "[1]; [8]", "result": "significant reduction of cold allodynia"},
      {"measurement": "mechanical allodynia (paw withdrawal threshold) vs animals treated with vehicle", "setting": "[2]; [7]", "result": "No additional significant antiallodynic effect"},
      {"measurement": "mechanical allodynia (paw withdrawal threshold) vs animals treated with vehicle", "setting": "[2]; [8]", "result": "significant reduction of mechanical allodynia"},
      {"measurement": "cold allodynia (number of paw withdrawals)", "setting": "[3]; DF2726A 30 mg/kg/os for 24 consecutive days from day -3, day 3", "result": "did not show antiallodynic effect"},
      {"measurement": "cold allodynia (number of paw withdrawals)", "setting": "[3]; DF2726A 30 mg/kg/os for 24 consecutive days from day -3, days 5, 7, 10, 14, 21", "result": "significant reduction of cold allodynia"},
      {"measurement": "mechanical allodynia (paw withdrawal threshold)", "setting": "[4]; DF2726A 30 mg/kg/os for 24 consecutive days from day -3", "result": "significant antiallodynic effect"}
    ]},
    {"smiles": "CC(C)Cc1ccc([C@@H](C)C(=O)NS(C)(=O)=O)cc1", "note": "[reparixin, R-(−)-2-(4-isobutylphenyl)propionyl methanesulfonamide]", "values": [
      {"measurement": "acetylated α-tubulin (marker of stable microtubules), immunofluorescence", "setting": "[5]; [9]", "result": "acetylated α-tubulin appears similar to the control"},
      {"measurement": "increased neurite thickness induced by paclitaxel treatment", "setting": "[5]; [9]", "result": "able to abolish"},
      {"measurement": "α-tubulin and β-tubulin immunofluorescence (dimer formation)", "setting": "[5]; [9]", "result": "able to counteract the effect of paclitaxel alone on dimer formation"}
    ]},
    {"smiles": "CC(=O)O[C@H]1C(=O)[C@@]2(C)[C@H]([C@H](OC(=O)c3ccccc3)[C@]3(O)C[C@H](OC(=O)[C@H](O)[C@@H](NC(=O)c4ccccc4)c4ccccc4)C(C)=C1C3(C)C)[C@]1(OC(C)=O)CO[C@@H]1C[C@@H]2O", "note": "[paclitaxel, reference compound]", "values": [
      {"measurement": "acetylated α-tubulin (marker of stable microtubules), immunofluorescence", "setting": "[5]; paclitaxel 10 nM alone", "result": "increased acetylated α-tubulin"},
      {"measurement": "fluorescence intensity of β-tubulin", "setting": "[5]; paclitaxel 10 nM alone", "result": "decrease of the fluorescence intensity of β-tubulin"},
      {"measurement": "neurite diameter", "setting": "[5]; paclitaxel 10 nM alone", "result": "increase of neurite diameter"}
    ]}
  ]
}
